Our source for the IC50 values is patent US8404670B2 (Sunovion Pharmaceuticals Inc., priority 2009, dated 2013).

As usually defined, the IC50 is the concentration that inhibits the measured activity by half.

T1 sequence (Q9Y5N1 whole entry): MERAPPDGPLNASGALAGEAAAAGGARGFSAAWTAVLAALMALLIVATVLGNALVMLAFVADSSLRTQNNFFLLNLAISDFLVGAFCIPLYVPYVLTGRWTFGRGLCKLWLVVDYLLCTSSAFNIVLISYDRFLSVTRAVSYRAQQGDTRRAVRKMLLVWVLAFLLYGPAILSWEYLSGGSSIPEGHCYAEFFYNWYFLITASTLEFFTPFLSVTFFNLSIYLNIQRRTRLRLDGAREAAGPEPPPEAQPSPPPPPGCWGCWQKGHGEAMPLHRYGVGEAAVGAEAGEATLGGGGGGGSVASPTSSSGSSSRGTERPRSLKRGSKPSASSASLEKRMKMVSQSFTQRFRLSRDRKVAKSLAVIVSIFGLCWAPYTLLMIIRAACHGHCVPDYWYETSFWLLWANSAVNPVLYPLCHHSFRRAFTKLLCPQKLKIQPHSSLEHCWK

The assay addresses T1, human histamine H3 receptor (Homo sapiens, UniProt Q9Y5N1).
T1 construct: host or cells: cells expressing the human H3 receptor
Description: H3 GTPγS assay (SPA method), histamine H3 in vitro assay. In kind it is biochemical. The note with it: GTPγ[35S] binding to membranes of cells expressing human H3; antagonist mode with R-γ-Me-Histamine at EC80 (30 nM); in one embodiment HCl salts tested; read-out: Potency (functional potency as indicated by IC50). (Binding of GTPγS marks nucleotide exchange on a G protein.)
For the compound `c1ccc(N2CCN(c3ccc4c(c3)nc3n4CCN(C4CCC4)CC3)CC2)nc1` [Compound 230, 3-cyclobutyl-8-(4-(pyridin-2-yl)piperazin-1-yl)-2,3,4,5-tetrahydro-1H-benzo[4,5]imidazo[1,2-d][1,4]diazepine], the 50% inhibitory concentration (IC50) was at most 10 nM.
Under `Fc1ccc(N2CCN(c3ccc4c(c3)nc3n4CCN(C4CCC4)CC3)CC2)cc1` [Compound 231, 3-cyclobutyl-8-(4-(4-fluorophenyl)piperazin-1-yl)-2,3,4,5-tetrahydro-1H-benzo[4,5]imidazo[1,2-d][1,4]diazepine] stands at most 10 nM.
Then `c1csc(N2CCN(c3ccc4c(c3)nc3n4CCN(C4CCC4)CC3)CC2)n1` [Compound 232, 2-(4-(3-cyclobutyl-2,3,4,5-tetrahydro-1H-benzo[4,5]imidazo[1,2-d][1,4]diazepin-8-yl)piperazin-1-yl)thiazole], with at most 10 nM; and `c1cnc(N2CCN(c3ccc4c(c3)nc3n4CCN(C4CCC4)CC3)CC2)cn1` [Compound 233, 3-cyclobutyl-8-(4-(pyrazin-2-yl)piperazin-1-yl)-2,3,4,5-tetrahydro-1H-benzo[4,5]imidazo[1,2-d][1,4]diazepine], with at most 10 nM; and `c1ccc(N2CCN(c3ccc4nc5n(c4c3)CCN(C3CCC3)CC5)CC2)nc1` [Compound 234, 3-cyclobutyl-9-(4-(pyridin-2-yl)piperazin-1-yl)-2,3,4,5-tetrahydro-1H-benzo[4,5]imidazo[1,2-d][1,4]diazepine], with at most 100 nM.
Under `Brc1cnc2c(c1)nc1n2CCN(C2CCC2)CC1` [Compound 235, 7-Aza-3-cyclobutyl-9-bromo-2,3,4,5-tetrahydro-1H-[1,4]diazepino[1,7-a]benzimidazole] stands at least 1000 nM; under `c1cnc(-c2cnc3c(c2)nc2n3CCN(C3CCC3)CC2)cn1` [Compound 236, 7-Aza-3-cyclobutyl-9-(pyrazin-2-yl)-2,3,4,5-tetrahydro-1H-[1,4]diazepino[1,7-a]benzimidazole], at most 1000 nM.
Consider `N#Cc1ccc(-c2cnc3c(c2)nc2n3CCN(C3CCC3)CC2)cc1` [Compound 237, 4-(7-aza-3-cyclobutyl-2,3,4,5-tetrahydro-1H-[1,4]diazepino[1,7-a]benzimidazol-9-yl)benzonitrile], for which the half-maximal inhibitory concentration (IC50) was at most 100 nM.
Under `c1coc(-c2cnc3c(c2)nc2n3CCN(C3CCC3)CC2)c1` [Compound 238] stands at most 1000 nM.
Then `NCc1ccc(-c2cnc3c(c2)nc2n3CCN(C3CCC3)CC2)cc1` [Compound 239], with at most 100 nM.
